Measurements from patent US4775673A, “Substituted acylpiperazinoquinazolines and pharmaceutical compositions containing same” (priority 1983, dated 1988).
Counter-ions that a name gives are not always drawn.

Key:
DOCA-hypertensive rats = test: blood pressure reduction in nonanesthetized (conscious) DOCA-hypertensive rats; assay type: in vivo, rat
Protocol: (§1) Of particular interest in this respect are the compounds of formula I above. The hydrochlorides of these compounds afford up to more than 15% aqueous solutions. […] In addition, the compounds of formula I are extremely non-toxic.
(§2) A typical, highly advantageous compound of the invention is the corresponding 2-methyloxypropionyl derivative of formula I, in which n is 0 and both R and R1 are methyl groups. In nonanesthesized (conscious) DOCA-hypertensive rats, this compound in an oral dose of 1 mg/kg elicits a blood pressure reduction of 20%. A dramatic reduction in blood pressure, as much as 40-50%, is observed in the same animals at a dose of 10 mg/kg p.o. Similarly, in non-anesthesized normotensive monkeys (Macaca mulatta), a dose of 3 mg/kg p.o. reduces the blood pressure by 20%. A dose of 25 mg/kg p.o. reduces blood pressure by 35 to 50% for a period of 7 to 9 hours. An intravenous administration of 2.5 mg/kg as a bolus to monkeys reduces blood pressure by 30 to 50% for 1 hour. A similar administration of 10 mg/kg i.v. elicits a blood pressure reduction of 50 to 70% for more then 7 hours. In rabbits anesthesized by pentobarbital, a dose of 25 mg/kg p.o. reduces blood pressure by 20 to 40% for a period of 4 to 5 hours. In non-anesthesized rabbits, a dose as low as 0.1 mg/kg i.v. elicits a transient but significant blood pressure reduction of almost 20%, shortly after administration. […]

[1] = tested on: normotensive monkeys (Macaca mulatta); test: blood pressure reduction in non-anesthetized normotensive monkeys; assay type: in vivo; conditions: for duration of blood pressure reduction: monkeys
Protocol: as §1
A typical, highly advantageous compound of the invention is the corresponding 2-methyloxypropionyl derivative of formula I, in which n is 0 and both R and R1 are methyl groups. In nonanesthesized (conscious) DOCA-hypertensive rats, this compound in an oral dose of 1 mg/kg elicits a blood pressure reduction of 20%. A dramatic reduction in blood pressure, as much as 40-50%, is observed in the same animals at a dose of 10 mg/kg p.o. Similarly, in non-anesthesized normotensive monkeys (Macaca mulatta), a dose of 3 mg/kg p.o. reduces the blood pressure by 20%. A dose of 25 mg/kg p.o. reduces blood pressure by 35 to 50% for a period of 7 to 9 hours. An intravenous administration of 2.5 mg/kg as a bolus to monkeys reduces blood pressure by 30 to 50% for 1 hour. A similar administration of 10 mg/kg i.v. elicits a blood pressure reduction of 50 to 70% for more then 7 hours. In rabbits anesthesized by pentobarbital, a dose of 25 mg/kg p.o. reduces blood pressure by 20 to 40% for a period of 4 to 5 hours. In non-anesthesized rabbits, a dose as low as 0.1 mg/kg i.v. elicits a transient but significant blood pressure reduction of almost 20%, shortly after administration. A dose of 1 mg/kg i.v. reduces the blood pressure by 20 to 30% for a period of more than 8 hours.

mice = test: acute toxicity assay in mice; assay type: in vivo, mouse; conditions: acute toxicity assays
From the text: as §1

[2] = acute toxicity assay in mice; assay type: in vivo, mouse; conditions: mouse, in vivo, iv, mice
From the text: as §1

non-anesthesized rabbits = test: blood pressure reduction in non-anesthetized rabbits; assay type: in vivo, rabbit
Protocol: as §1, §2

[3] = acute toxicity assay in rats; conditions: rat, in vivo, iv
hypertension = conditions: prior art; cited from earlier work
[4] = prior art; cited from earlier work
[5] = tested on: post-synaptic alpha1 -adrenergic receptors; conditions: prior art; cited from earlier work

Structure (SMILES)	blood pressure reduction (DOCA-hypertensive rats; 1 mg/kg oral) [%]	reduction in blood pressure (DOCA-hypertensive rats; 10 mg/kg p.o.)	duration of blood pressure reduction ([1]; 2.5 mg/kg i.v. bolus) [h]	blood pressure reduction ([1]; 3 mg/kg p.o., non-anesthetized monkeys) [%]	duration of blood pressure reduction ([1]; 10 mg/kg i.v.) [h]	toxicity (mice)	LD50 [2] [mg/kg]	blood pressure reduction (non-anesthesized rabbits; 0.1 mg/kg i.v., transient, shortly after administration) [%]	duration of blood pressure reduction (non-anesthesized rabbits; 1 mg/kg i.v.)	LD50 [3] [mg/kg]	antihypertensive activity (hypertension)	solubility in water [4]	blocking of post-synaptic alpha1-adrenergic receptors [5]
COc1cc2nc(N3CCN(C(=O)C(C)OC)CC3)nc(N)c2cc1OC (stereo not shown) [2-methoxypropionyl derivative, 1-(4-amino-6,7-dimethoxy-2-quinazolinyl)-4-(2-methoxyproprionyl)piperazine]	20	40-50%	1	20	> 7	extremely low in toxicity	360	~20	more than 8 hours	440	–	–	–
COc1cc2nc(N3CCN(C(=O)c4ccco4)CC3)nc(N)c2cc1OC [Prazosin, 1-(4-amino-6,7-dimethyoxy2-quinazolinyl)-4-(2-furoyl) piperazine hydrochloride]	–	–	–	–	–	–	–	–	–	–	highly efficient antihypertensive compound	only slightly soluble in water	blocking the post-synaptic alpha1 -adrenergic receptors
